Key:
potassium arsenate = compound: O=[As]([O-])(O)O.[K+] [potassium arsenate]; experiment: thermal stability z-score vs DMSO; higher = more thermally stabilized by treatment; conditions: HeLa; arsenate concentration 1 mM
Method: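 Cellular thermal proteome profiling in HeLa cells treated with 1 mM arsenate for 1 h (DMSO pretreatment), heated to ten temperatures (37-66.3 °C). Soluble protein was quantified by TMT mass spectrometry relative to DMSO controls; the thermal stability score was transformed to a z-score; mean of n = 3 experiments.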

lipoamide = compound: NC(=O)CCCCC1CCSS1 [lipoamide]; experiment: as above; conditions: HeLa, lipoamide concentration 100 µM
Method: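 Cellular thermal proteome profiling in HeLa cells. Cells were treated with 100 µM lipoamide for 1 h, with or without 1 mM arsenate for a further 1 h, then heated to ten temperatures (37-66.3 °C), and soluble protein was quantified by TMT mass spectrometry relative to 0.1% DMSO controls. The thermal stability score (sum of log2 fold changes minus the abundance score) was transformed to a z-score; mean of n = 3 experiments.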

[1] = arsenate co-treatment: 1 mM arsenate 1 h
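Also: each temperature applied for 3 min, abundance score taken as mean log2 fold change at the two lowest temperatures, z-score obtained by mean subtraction and division by SD.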

UniProt Q15714, sequence (Q15714 whole entry): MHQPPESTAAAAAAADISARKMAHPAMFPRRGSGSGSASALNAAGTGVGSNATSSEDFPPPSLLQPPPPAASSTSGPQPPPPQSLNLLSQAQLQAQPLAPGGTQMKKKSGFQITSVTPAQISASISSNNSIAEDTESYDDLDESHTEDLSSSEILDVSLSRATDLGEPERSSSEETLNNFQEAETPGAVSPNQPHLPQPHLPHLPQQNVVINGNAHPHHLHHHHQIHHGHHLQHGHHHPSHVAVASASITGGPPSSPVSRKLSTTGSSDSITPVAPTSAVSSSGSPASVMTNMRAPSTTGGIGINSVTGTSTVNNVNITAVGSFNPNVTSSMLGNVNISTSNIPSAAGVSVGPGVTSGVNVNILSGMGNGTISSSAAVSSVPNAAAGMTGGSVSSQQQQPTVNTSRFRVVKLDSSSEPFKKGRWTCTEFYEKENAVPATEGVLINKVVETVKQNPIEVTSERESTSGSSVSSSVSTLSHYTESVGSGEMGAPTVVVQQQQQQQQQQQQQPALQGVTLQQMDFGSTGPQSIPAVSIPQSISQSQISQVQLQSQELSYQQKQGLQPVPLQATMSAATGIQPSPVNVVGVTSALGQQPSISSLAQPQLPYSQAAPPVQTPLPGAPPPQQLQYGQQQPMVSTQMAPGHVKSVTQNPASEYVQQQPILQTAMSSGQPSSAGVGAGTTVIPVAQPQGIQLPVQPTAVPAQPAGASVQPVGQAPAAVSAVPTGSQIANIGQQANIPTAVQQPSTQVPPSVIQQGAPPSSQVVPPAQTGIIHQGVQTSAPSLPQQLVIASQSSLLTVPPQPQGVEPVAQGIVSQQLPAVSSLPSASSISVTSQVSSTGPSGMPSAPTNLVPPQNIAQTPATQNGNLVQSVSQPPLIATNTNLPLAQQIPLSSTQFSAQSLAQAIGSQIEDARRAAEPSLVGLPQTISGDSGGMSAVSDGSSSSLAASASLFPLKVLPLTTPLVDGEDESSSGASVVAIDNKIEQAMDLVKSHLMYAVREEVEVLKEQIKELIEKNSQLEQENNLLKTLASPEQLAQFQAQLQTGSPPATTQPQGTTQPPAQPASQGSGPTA
UniProt Q8WWH5, sequence (Q8WWH5 whole entry): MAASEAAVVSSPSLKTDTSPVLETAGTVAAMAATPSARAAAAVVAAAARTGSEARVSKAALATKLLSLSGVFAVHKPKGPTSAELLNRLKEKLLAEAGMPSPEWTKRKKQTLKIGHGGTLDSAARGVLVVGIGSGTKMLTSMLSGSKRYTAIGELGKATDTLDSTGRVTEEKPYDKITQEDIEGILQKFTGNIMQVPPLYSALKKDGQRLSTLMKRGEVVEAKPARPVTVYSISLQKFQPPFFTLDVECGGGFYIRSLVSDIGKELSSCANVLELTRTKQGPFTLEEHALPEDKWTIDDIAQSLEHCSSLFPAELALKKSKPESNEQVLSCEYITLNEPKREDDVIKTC
UniProt Q13630, sequence (Q13630 whole entry): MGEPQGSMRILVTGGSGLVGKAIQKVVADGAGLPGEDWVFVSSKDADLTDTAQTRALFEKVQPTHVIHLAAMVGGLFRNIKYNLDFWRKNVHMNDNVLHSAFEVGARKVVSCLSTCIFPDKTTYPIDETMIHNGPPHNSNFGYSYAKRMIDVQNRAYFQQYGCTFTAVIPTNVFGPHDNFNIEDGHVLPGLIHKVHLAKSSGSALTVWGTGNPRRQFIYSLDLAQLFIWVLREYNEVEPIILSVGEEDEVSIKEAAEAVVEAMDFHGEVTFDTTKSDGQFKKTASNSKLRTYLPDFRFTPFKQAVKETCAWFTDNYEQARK
UniProt Q9H0U9, sequence (Q9H0U9 whole entry): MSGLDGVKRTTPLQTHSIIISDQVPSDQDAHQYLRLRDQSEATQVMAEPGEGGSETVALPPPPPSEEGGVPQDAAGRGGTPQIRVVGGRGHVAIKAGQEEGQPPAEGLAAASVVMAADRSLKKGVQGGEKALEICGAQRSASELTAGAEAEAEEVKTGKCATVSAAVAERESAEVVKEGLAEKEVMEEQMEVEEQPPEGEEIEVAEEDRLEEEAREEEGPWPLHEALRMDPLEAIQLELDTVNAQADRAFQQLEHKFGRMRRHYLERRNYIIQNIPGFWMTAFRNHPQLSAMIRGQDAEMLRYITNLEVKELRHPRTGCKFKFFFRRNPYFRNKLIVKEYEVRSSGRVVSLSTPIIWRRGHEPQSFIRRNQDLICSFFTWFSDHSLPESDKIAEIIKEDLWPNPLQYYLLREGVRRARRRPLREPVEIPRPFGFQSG
UniProt Q2NL82, sequence (Q2NL82 whole entry): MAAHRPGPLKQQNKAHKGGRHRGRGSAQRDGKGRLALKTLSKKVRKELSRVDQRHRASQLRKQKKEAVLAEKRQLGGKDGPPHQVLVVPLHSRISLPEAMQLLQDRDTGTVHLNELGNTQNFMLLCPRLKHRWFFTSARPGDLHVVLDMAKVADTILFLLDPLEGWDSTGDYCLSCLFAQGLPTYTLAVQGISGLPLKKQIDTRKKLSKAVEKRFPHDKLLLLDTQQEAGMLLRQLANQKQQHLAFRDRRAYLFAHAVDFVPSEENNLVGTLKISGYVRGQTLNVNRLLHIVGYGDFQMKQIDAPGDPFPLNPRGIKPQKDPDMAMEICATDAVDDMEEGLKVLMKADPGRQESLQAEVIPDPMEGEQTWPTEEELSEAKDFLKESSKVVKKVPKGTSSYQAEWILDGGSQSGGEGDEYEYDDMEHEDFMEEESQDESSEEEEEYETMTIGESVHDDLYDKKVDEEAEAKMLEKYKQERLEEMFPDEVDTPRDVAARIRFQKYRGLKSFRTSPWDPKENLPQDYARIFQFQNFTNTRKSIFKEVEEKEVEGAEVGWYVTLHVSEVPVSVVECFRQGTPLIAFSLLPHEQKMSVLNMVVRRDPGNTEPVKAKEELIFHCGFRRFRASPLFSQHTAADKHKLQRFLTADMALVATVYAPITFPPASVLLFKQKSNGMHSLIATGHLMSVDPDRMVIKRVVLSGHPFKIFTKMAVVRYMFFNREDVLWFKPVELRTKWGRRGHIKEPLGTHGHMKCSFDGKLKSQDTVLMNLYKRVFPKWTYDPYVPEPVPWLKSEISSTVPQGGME
UniProt Q9NUP7, sequence (Q9NUP7 whole entry): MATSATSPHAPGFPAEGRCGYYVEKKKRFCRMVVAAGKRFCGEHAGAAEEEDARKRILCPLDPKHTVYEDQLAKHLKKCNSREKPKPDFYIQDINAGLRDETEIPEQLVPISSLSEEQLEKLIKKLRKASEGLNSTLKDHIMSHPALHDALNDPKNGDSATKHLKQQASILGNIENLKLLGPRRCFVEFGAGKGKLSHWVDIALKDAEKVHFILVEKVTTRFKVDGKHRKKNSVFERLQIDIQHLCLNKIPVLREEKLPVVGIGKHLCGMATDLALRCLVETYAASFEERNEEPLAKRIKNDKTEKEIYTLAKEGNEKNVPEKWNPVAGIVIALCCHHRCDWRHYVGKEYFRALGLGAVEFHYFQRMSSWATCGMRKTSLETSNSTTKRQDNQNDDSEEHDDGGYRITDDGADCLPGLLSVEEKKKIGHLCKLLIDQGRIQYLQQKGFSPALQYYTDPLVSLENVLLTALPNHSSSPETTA
UniProt Q9NXH9, sequence (Q9NXH9 whole entry): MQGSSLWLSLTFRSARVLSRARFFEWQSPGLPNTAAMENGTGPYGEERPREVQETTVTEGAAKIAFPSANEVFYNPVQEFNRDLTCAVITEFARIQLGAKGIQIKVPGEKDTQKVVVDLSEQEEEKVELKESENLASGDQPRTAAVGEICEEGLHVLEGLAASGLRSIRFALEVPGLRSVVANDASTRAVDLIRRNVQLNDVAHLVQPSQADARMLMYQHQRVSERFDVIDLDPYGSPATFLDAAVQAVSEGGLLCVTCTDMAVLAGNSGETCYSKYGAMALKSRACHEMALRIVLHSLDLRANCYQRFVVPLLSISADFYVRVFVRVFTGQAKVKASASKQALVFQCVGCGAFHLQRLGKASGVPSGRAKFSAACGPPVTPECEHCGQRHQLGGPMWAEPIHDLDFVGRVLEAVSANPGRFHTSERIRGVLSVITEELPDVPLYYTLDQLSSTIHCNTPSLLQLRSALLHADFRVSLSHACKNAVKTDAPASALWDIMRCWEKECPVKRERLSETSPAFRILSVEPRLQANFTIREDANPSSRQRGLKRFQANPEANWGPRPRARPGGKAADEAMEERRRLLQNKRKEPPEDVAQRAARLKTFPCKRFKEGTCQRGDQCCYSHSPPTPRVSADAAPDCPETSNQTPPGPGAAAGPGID
UniProt Q7Z6J9, sequence (Q7Z6J9 whole entry): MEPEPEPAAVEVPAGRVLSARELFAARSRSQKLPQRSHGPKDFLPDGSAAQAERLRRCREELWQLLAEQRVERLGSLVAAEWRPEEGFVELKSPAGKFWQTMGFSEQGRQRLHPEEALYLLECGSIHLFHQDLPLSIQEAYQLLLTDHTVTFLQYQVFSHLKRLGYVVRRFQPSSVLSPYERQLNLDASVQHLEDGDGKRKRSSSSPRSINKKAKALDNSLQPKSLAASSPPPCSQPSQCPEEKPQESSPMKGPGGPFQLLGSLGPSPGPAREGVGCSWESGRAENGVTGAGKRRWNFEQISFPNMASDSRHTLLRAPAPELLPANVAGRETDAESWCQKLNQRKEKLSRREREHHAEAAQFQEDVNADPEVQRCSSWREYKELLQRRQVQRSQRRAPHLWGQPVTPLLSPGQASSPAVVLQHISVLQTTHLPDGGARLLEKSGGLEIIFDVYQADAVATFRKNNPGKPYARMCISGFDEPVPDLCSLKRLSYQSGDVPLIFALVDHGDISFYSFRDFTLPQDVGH
UniProt O14817, sequence (O14817 whole entry): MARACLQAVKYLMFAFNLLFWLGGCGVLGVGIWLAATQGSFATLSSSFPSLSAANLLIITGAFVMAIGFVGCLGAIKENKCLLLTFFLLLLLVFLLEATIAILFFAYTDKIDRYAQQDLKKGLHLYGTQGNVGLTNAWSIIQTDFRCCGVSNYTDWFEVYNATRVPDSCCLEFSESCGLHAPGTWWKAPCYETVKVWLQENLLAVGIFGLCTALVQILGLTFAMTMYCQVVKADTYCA

Target	thermal stability z-score (potassium arsenate)	thermal stability z-score (lipoamide; [1])	thermal stability z-score (lipoamide; arsenate co-treatment: none)
TRIP12 (UniProt Q14669)	0.157	-0.227	-0.162
TRIP13 (UniProt Q15645)	-0.184	-0.215	-0.735
TRIT1 (UniProt Q9H3H1)	0.0151	-0.0696	-0.0898
TRMT1 (UniProt Q9NXH9)	-0.423	0.222	-0.116
TRMT1L (UniProt Q7Z2T5)	-1.26	0.385	0.0926
TRMT2A (UniProt Q8IZ69)	-0.216	-0.235	-0.172
TRMT5 (UniProt Q32P41)	-0.112	-0.124	0.0028
TRMT6 (UniProt Q9UJA5)	0.0561	0.481	0.683
TRMT10A (UniProt Q8TBZ6)	0.266	-0.927	-0.427
TRMT10C (UniProt Q7L0Y3)	0.226	-0.602	-0.191
TRMT11 (UniProt Q7Z4G4)	-0.518	0.259	-0.151
TRMT13 (UniProt Q9NUP7)	0.263	-0.376	-1.34
TRMT61A (UniProt Q96FX7)	-0.0703	1.14	-1.08
TRMT61B (UniProt Q9BVS5)	-0.271	-1.22	-0.842
TRMT112 (UniProt Q9UI30)	-0.0169	0.215	-0.0845
TRMU (UniProt O75648)	-0.558	-0.59	-0.509
TRNT1 (UniProt Q96Q11)	-0.174	0.00685	-0.189
TROVE2 (UniProt P10155)	-0.238	-0.23	-0.235
TRRAP (UniProt Q9Y4A5)	-1.16	0.918	0.759
TRUB1 (UniProt Q8WWH5)	0.231	-0.102	0.175
TRUB2 (UniProt O95900)	-0.133	0.00158	0.0663
TSC1 (UniProt Q92574)	-0.0936	0.103	-0.0297
TSC2 (UniProt P49815)	0.0977	0.021	-0.0212
TSC22D1 (UniProt Q15714)	0.629	0.404	0.657
TSC22D2 (UniProt O75157)	1.16	1.54	0.0633
TSC22D4 (UniProt Q9Y3Q8)	-0.0991	-1.89	-0.035
TSEN2 (UniProt Q8NCE0)	-0.00537	0.337	0.418
TSEN15 (UniProt Q8WW01)	0.473	-0.438	-0.0314

Target	thermal stability z-score (potassium arsenate)	thermal stability z-score (lipoamide; [1])	thermal stability z-score (lipoamide; arsenate co-treatment: none)
TSEN34 (UniProt Q9BSV6)	-0.292	-1.1	0.117
TSEN54 (UniProt Q7Z6J9)	0.795	-0.815	0.162
TSFM (UniProt P43897)	-0.0696	-0.91	-0.179
TSG101 (UniProt Q99816)	-0.0661	0.29	0.0321
TSN (UniProt Q15631)	-0.161	1.41	1.61
TSNAX (UniProt Q99598)	-0.215	-0.075	-0.0638
TSPAN4 (UniProt O14817)	0.304	-0.0469	0.15
TSPAN6 (UniProt O43657)	0.466	0.216	0.486
TSPAN13 (UniProt O95857)	-0.0847	0.229	0.441
TSPO	0.892	-0.334	0.17
TSPYL1 (UniProt Q9H0U9)	0.0344	-0.00828	-0.153
TSR1 (UniProt Q2NL82)	0.334	-0.39	0.00573
TSR2 (UniProt Q969E8)	0.317	0.33	0.0774
TSR3 (UniProt Q9UJK0)	-1.75	-0.214	-0.723
TSSC1 (UniProt Q53HC9)	-0.25	0.436	-0.204
TSSC4 (UniProt Q9Y5U2)	-0.46	1.17	0.668
TST (UniProt Q16762)	1	0.729	-0.00911
TSTA3 (UniProt Q13630)	-0.387	-0.467	-0.784
TSTD2 (UniProt Q5T7W7)	-0.0518	-0.0897	-0.178
TTC1 (UniProt Q99614)	-0.104	-0.0842	0.337
TTC4 (UniProt O95801)	-0.14	-0.0544	0.0918
TTC5 (UniProt Q8N0Z6)	-0.0548	-0.0841	0.0677
TTC9C (UniProt Q8N5M4)	-0.649	-0.988	-0.401
TTC13 (UniProt Q8NBP0)	0.595	-0.787	-1.08
TTC17 (UniProt Q96AE7)	0.453	-0.85	-0.317
TTC19 (UniProt Q6DKK2)	-1.29	0.927	0.897
TTC21B (UniProt Q7Z4L5)	-0.277	-0.223	-0.505

Source: the supplement of paper PMC12463676, “Small-molecule dissolution of stress granules by redox modulation benefits ALS models” (Nature Chemical Biology, 2025)
